Key:
FKBP51 = target: T1, FKBP51 (Homo sapiens, UniProt Q13451); experiment: Fluorescence polarization binding assay, FK1-domain of FKBP51WT with tracer F4; parameters: Purified FK1-domains of FKBP51WT (4.5 nM) with F4 (3 nM), FKBP52WT (400 nM) with F2 (20 nM); made in house; host or cells: E. coli BL21(DE3)pLysS; details: compounds B01-C25; read-out: Affinity(Ki) for FKBP51
T1 sequence (Q13451 42-130 limits assumed): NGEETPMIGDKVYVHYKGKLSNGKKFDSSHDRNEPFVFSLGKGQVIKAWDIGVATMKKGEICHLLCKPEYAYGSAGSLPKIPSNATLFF
Method: (§1) The target protein was also diluted in this assay buffer at double the highest concentration required for the final sample. This protein stock was used for a 1:1 serial dilution.
(§2) The inventive compound was dissolved in DMSO to reach a 100-times concentrated stock solution. This was used for a 1:1 serial dilution in DMSO.
(§3) For FKBP12, −51, and −52 the binding assays were performed in duplicates in the plate format.
(§4) The competition curves were analyzed by using SigmaPlot9. Data were fitted to a four parameter logistic curve to deduce the IC50 values. […] A=(Amax−Amin)/[L]t×(([L]t×((2×((Klig+Kcomp+[L]t+[I]t−[R]t)^2−3×(Kcomp×([L]t−[R]t)+Klig×([I]t−[R]t)+Klig×Kcomp))^0.5×COS(ARCCOS((−2×(Klig+Kcomp+[L]t+[I]t−[R]t)^3+9×(Klig+Kcomp+[L]t+[I]t−[R]t)×(Kcomp×([L]t−[R]t)+Klig×([I]t−[R]t)+Klig×Kcomp)−27×(−1×Klig×Kcomp×[R]t))/(2×((((Klig+Kcomp+[L]t+[I]t−[R]t)^2−3×(Kcomp×([L]t−[R]t)+Klig×([I]t−[R]t)+Klig×Kcomp))^3)^0.5)))/3))−(Klig+Kcomp+[L]t+[I]t−[R]t)))/((3×Klig)+((2×((Klig+Kcomp+[L]t+[I]t−[R]t)^2−3×(Kcomp×([L]t−[R]t)+Klig×([I]t−[R]t)+Klig×Kcomp))^0.5×COS(ARCCOS((−2×(Klig+Kcomp+[L]t+[I]t−[R]t)^3+9×(Klig+Kcomp+[L]t+[I]t−[R]t)×(Kcomp×([L]t−[R]t)+Klig×([I]t−[R]t)+Klig×Kcomp)−27×(−1×Klig×Kcomp×[R]t))/(2×((((Klig+Kcomp+[L]t+[I]t−[R]t)^2−3×(Kcomp×([L]t−[R]t)+Klig×([I]t−[R]t)+Klig×Kcomp))^3)^0.5)))/3))−(Klig+Kcomp+[L]t+[I]t−[R]t))))+Amin
(§5) In this equation Klig and Kcomp stand for the Kd values of the used tracer or competing inhibitor, [I]t is referring to the total concentration of the titrated inhibitor.
(§6) Inhibition constants were measured in a fluorescence polarization binding assay by titrating the compounds.

FKBP52 = target: T2, FKBP52 (Homo sapiens, UniProt Q02790); experiment: Fluorescence polarization binding assay, FK1-domain of FKBP52WT with tracer F2 (selectivity FKBP51 vs. FKBP52); details: selectivity factor over FKBP52; compounds B01-C25
T2 construct: Purified FK1-domains of FKBP51WT (4.5 nM) with F4 (3 nM), FKBP52WT (400 nM) with F2 (20 nM); implied by Ni-NTA purification) (N); made in house; host or cells: E. coli BL21(DE3)pLysS
T2 sequence (Q02790 50-138 limits assumed): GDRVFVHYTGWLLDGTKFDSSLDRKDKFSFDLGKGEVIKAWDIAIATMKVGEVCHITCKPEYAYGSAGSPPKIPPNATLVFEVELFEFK
Method: as §1, §2, §3, §4, §5
The Selectivity of the Compounds was Classified by Ki(FKBP51)/Ki(FKBP52)
as §6

Row | Structure (SMILES) | Ki (FKBP51) [µM] | Ki(FKBP51)/Ki(FKBP52) (FKBP52)
1 | COc1cc([C@@H](C(=O)N2CCCC[C@H]2C(=O)N[C@@H](C(N)=O)C(C)C)C2CCCCC2)cc(OC)c1OC [Compound B04, (S)-N-((R)-1-amino-3-methyl-1-oxobutan-2-yl)-1-((S)-2-cyclohexyl-2-(3,4,5-trimethoxyphenyl)acetyl)piperidine-2-carboxamide] | 1 to 10 | + (>5 +)
2 | COc1cc([C@@H](C(=O)N2CCCC[C@H]2C(=O)N[C@@H](Cc2ccccc2)C(N)=O)C2CCCCC2)cc(OC)c1OC [Compound B05, (S)-N-((S)-1-amino-1-oxo-3-phenylpropan-2-yl)-1-((S)-2-cyclohexyl-2-(3,4,5-trimethoxyphenyl)acetyl)piperidine-2-carboxamide] | 1 to 10 | ++ (>50 ++)
3 | COc1cc([C@@H](C(=O)N2CCCC[C@H]2C(=O)N[C@H](Cc2ccccc2)C(N)=O)C2CCCCC2)cc(OC)c1OC [Compound B06, (S)-N-((R)-1-amino-1-oxo-3-phenylpropan-2-yl)-1-((S)-2-cyclohexyl-2-(3,4,5-trimethoxyphenyl)acetyl)piperidine-2-carboxamide] | 1 to 10 | ++ (>50 ++)
4 | COc1cc([C@@H](C(=O)N2CCCC[C@H]2C(=O)N[C@@H](CC2CCCCC2)C(N)=O)C2CCCCC2)cc(OC)c1OC [Compound B07, (S)-N-((S)-1-amino-3-cyclohexyl-1-oxopropan-2-yl)-1-((S)-2-cyclohexyl-2-(3,4,5-trimethoxyphenyl)acetyl)piperidine-2-carboxamide] | 10 to 50 | + (>5 +)
5 | COc1cc([C@@H](C(=O)N2CCCC[C@H]2C(=O)N[C@@H](CCc2ccccc2)C(N)=O)C2CCCCC2)cc(OC)c1OC [Compound B08, (S)-N-((S)-1-amino-1-oxo-4-phenylbutan-2-yl)-1-((S)-2-cyclohexyl-2-(3,4,5-trimethoxyphenyl)acetyl)piperidine-2-carboxamide] | 1 to 10 | ++ (>50 ++)
6 | COc1cc([C@@H](C(=O)N2CCCC[C@H]2C(=O)N[C@@H](CCC2CCCCC2)C(N)=O)C2CCCCC2)cc(OC)c1OC [Compound B09, (S)-N-((S)-1-amino-4-cyclohexyl-1-oxobutan-2-yl)-1-((S)-2-cyclohexyl-2-(3,4,5-trimethoxyphenyl)acetyl)piperidine-2-carboxamide] | 10 to 50 | ++ (>50 ++)
7 | COc1cc([C@@H](C(=O)N2CCCC[C@H]2C(=O)NCC(N)=O)C2CCCCC2)cc(OC)c1OC [Compound B10, (S)-N-(2-amino-2-oxoethyl)-1-((S)-2-cyclohexyl-2-(3,4,5-trimethoxyphenyl)acetyl)piperidine-2-carboxamide] | 10 to 50 | + (>5 +)
8 | COc1cc([C@@H](C(=O)N2CCCC[C@H]2C(=O)NC(C)(C)C(N)=O)C2CCCCC2)cc(OC)c1OC [Compound B11, (S)-N-(1-amino-2-methyl-1-oxopropan-2-yl)-1-((S)-2-cyclohexyl-2-(3,4,5-trimethoxyphenyl)acetyl)piperidine-2-carboxamide] | 1 to 10 | +++ (>500 +++)
9 | CC[C@H](NC(=O)[C@@H]1CCCCN1C(=O)[C@H](c1cc(OC)c(OC)c(OC)c1)C1CCCCC1)C(N)=O [Compound B12, (S)-N-((S)-1-amino-1-oxobutan-2-yl)-1-((S)-2-cyclohexyl-2-(3,4,5-trimethoxyphenyl)acetyl)piperidine-2-carboxamide] | 1 to 10 | ++ (>50 ++)
10 | CC[C@@H](NC(=O)[C@@H]1CCCCN1C(=O)[C@H](c1cc(OC)c(OC)c(OC)c1)C1CCCCC1)C(N)=O [Compound B13, (S)-N-((R)-1-amino-1-oxobutan-2-yl)-1-((S)-2-cyclohexyl-2-(3,4,5-trimethoxyphenyl)acetyl)piperidine-2-carboxamide] | 1 to 10 | ++ (>50 ++)
11 | CC[C@H](C)[C@H](NC(=O)[C@@H]1CCCCN1C(=O)[C@H](c1cc(OC)c(OC)c(OC)c1)C1CCCCC1)C(N)=O [Compound B14, (S)-N-((2S,3S)-1-amino-3-methyl-1-oxopentan-2-yl)-1-((S)-2-cyclohexyl-2-(3,4,5-trimethoxyphenyl)acetyl)piperidine-2-carboxamide] | 1 to 10 | ++ (>50 ++)
12 | CC[C@@H](C)[C@@H](NC(=O)[C@@H]1CCCCN1C(=O)[C@H](c1cc(OC)c(OC)c(OC)c1)C1CCCCC1)C(N)=O [Compound B15, (S)-N-((2R,3R)-1-amino-3-methyl-1-oxopentan-2-yl)-1-((S)-2-cyclohexyl-2-(3,4,5-trimethoxyphenyl)acetyl)piperidine-2-carboxamide] | 1 to 10 | ++ (>50 ++)
13 | COc1cc([C@@H](C(=O)N2CCCC[C@H]2C(=O)N[C@H](C(N)=O)C2CCCCC2)C2CCCCC2)cc(OC)c1OC [Compound B18, (S)-N-((S)-2-amino-1-cyclohexyl-2-oxoethyl)-1-((S)-2-cyclohexyl-2-(3,4,5-trimethoxyphenyl)acetyl)piperidine-2-carboxamide] | 1 to 10 | ++ (>50 ++)
14 | COc1cc([C@@H](C(=O)N2CCCC[C@H]2C(=O)N[C@H](CO)C(N)=O)C2CCCCC2)cc(OC)c1OC [Compound B21, (S)-N-((R)-1-amino-3-hydroxy-1-oxopropan-2-yl)-1-((S)-2-cyclohexyl-2-(3,4,5-trimethoxyphenyl)acetyl)piperidine-2-carboxamide] | 1 to 10 | ++ (>50 ++)
15 | COc1cc([C@@H](C(=O)N2CCCC[C@H]2C(=O)N[C@@H](CO)C(N)=O)C2CCCCC2)cc(OC)c1OC [Compound B22, (S)-N-((S)-1-amino-3-hydroxy-1-oxopropan-2-yl)-1-((S)-2-cyclohexyl-2-(3,4,5-trimethoxyphenyl)acetyl)piperidine-2-carboxamide] | 1 to 10 | ++ (>50 ++)
16 | COc1cc([C@@H](C(=O)N2CCCC[C@H]2C(=O)N[C@@H](CCC(N)=O)C(N)=O)C2CCCCC2)cc(OC)c1OC [Compound B23, (S)-2-((S)-1-((S)-2-cyclohexyl-2-(3,4,5-trimethoxyphenyl)acetyl)piperidine-2-carboxamido)pentanediamide] | 10 to 50 | + (>5 +)
17 | COc1cc([C@@H](C(=O)N2CCCC[C@H]2C(=O)N[C@H](CCC(N)=O)C(N)=O)C2CCCCC2)cc(OC)c1OC [Compound B24, (R)-2-((S)-1-((S)-2-cyclohexyl-2-(3,4,5-trimethoxyphenyl)acetyl)piperidine-2-carboxamido)pentanediamide] | 1 to 10 | ++ (>50 ++)
18 | COc1cc([C@@H](C(=O)N2CCCC[C@H]2C(=O)NC(C)(C)CC(N)=O)C2CCCCC2)cc(OC)c1OC [Compound B25, (S)-N-(4-amino-2-methyl-4-oxobutan-2-yl)-1-((S)-2-cyclohexyl-2-(3,4,5-trimethoxyphenyl)acetyl)piperidine-2-carboxamide] | 1 to 10 | +++ (>500 +++)
19 | COc1cc([C@@H](C(=O)N2CCCC[C@H]2C(=O)NC2(C(N)=O)CC2)C2CCCCC2)cc(OC)c1OC [Compound B26, (S)-N-(1-carbamoylcyclopropyl)-1-((S)-2-cyclohexyl-2-(3,4,5-trimethoxyphenyl)acetyl)piperidine-2-carboxamide] | 10 to 50 | ++ (>50 ++)
20 | COc1cc([C@@H](C(=O)N2CCCC[C@H]2C(=O)NC2(C(N)=O)CCC2)C2CCCCC2)cc(OC)c1OC [Compound B27, (S)-N-(1-carbamoylcyclobutyl)-1-((S)-2-cyclohexyl-2-(3,4,5-trimethoxyphenyl)acetyl)piperidine-2-carboxamide] | 1 to 10 | ++ (>50 ++)
